4 compounds from ChEMBL document CHEMBL5226353, “Cytotoxic Activities of 9,10-seco-Cycloartane-Type Triterpenoids from the Chinese Liverwort Lepidozia reptans” (J Nat Prod, 2021) can be followed below.

For assay [1], the system named is PC-3. Nature of the assay: Cytotoxicity against human PC-3 cells assessed as inhibition of cell growth incubated for 48 hrs by MTT assay. The assay is classed as functional, cell-based. The conditions noted are these: PC-3, 48 h.
The next assay deals with A549. In words: Cytotoxicity against human A549 cells assessed as inhibition of cell growth incubated for 48 hrs by MTT assay. The conditions noted are these: A549, 48 h. The assay is classed as functional, cell-based.
The test system of the next assay is NCI-H3255. Nature of the assay: Cytotoxicity against human NCI-H3255 cells assessed as inhibition of cell growth incubated for 48 hrs by MTT assay. The assay is classed as functional, cell-based. The conditions noted are these: NCI-H3255, 48 h. For orientation: Tetrazolium assays rely on reduction of a dye to a coloured formazan, in cell work by metabolically active cells.

In a further assay the test system is NCI-H446. In words: Cytotoxicity against human NCI-H446 cells assessed as inhibition of cell growth incubated for 48 hrs by MTT assay. The assay is classed as functional, cell-based. The conditions noted are these: NCI-H446, 48 h.
Assay [2] relates to PC-3. In words: Induction of apoptosis in human PC-3 cells assessed as viable cells at 2.5 uM measured after 24 hrs by annexinV-FITC staining based flow cytometric analysis (reference value: 92.9 %). The assay is classed as functional. The conditions noted are these: read-out: Activity. (In general: Flow cytometry measures light scatter and fluorescence of single cells or particles in a stream.)

In assay [3] the test system is PC-3. In words: Induction of apoptosis in human PC-3 cells assessed as early apoptotic cells at 2.5 uM measured after 24 hrs by annexinV-FITC staining based flow cytometric analysis (reference value: 0.12 %). The assay is classed as functional.
For assay [4], the system named is PC-3. Nature of the assay: Induction of apoptosis in human PC-3 cells assessed as late apoptotic cells at 2.5 uM measured after 24 hrs by annexinV-FITC staining based flow cytometric analysis (reference value: 1.87 %). The assay is classed as functional.
The test system of assay [5] is PC-3. In words: Induction of apoptosis in human PC-3 cells assessed as necrotic cells at 2.5 uM measured after 24 hrs by annexinV-FITC staining based flow cytometric analysis (reference value: 5.09 %). The assay is classed as functional.
The test system of assay [6] is PC-3. Nature of the assay: Induction of apoptosis in human PC-3 cells assessed as viable cells at 5 uM measured after 24 hrs by annexinV-FITC staining based flow cytometric analysis (reference value: 92.9 %). The assay is classed as functional. The conditions noted are these: read-out: Activity.
The subject of assay [7] is PC-3. Nature of the assay: Induction of apoptosis in human PC-3 cells assessed as early apoptotic cells at 5 uM measured after 24 hrs by annexinV-FITC staining based flow cytometric analysis (reference value: 0.12 %). The assay is classed as functional.
In assay [8] the test system is PC-3. Nature of the assay: Induction of apoptosis in human PC-3 cells assessed as late apoptotic cells at 5 uM measured after 24 hrs by annexinV-FITC staining based flow cytometric analysis (reference value: 1.87 %). The assay is classed as functional.
Assay [9] deals with PC-3. Nature of the assay: Induction of apoptosis in human PC-3 cells assessed as necrotic cells at 5 uM measured after 24 hrs by annexinV-FITC staining based flow cytometric analysis (reference value: 5.09 %). The assay is classed as functional.
For assay [10], the system named is PC-3. In words: Induction of apoptosis in human PC-3 cells assessed as viable cells at 10 uM measured after 24 hrs by annexinV-FITC staining based flow cytometric analysis (reference value: 92.9 %). The assay is classed as functional. The following applies: read-out: Activity.
Assay [11] has as its system PC-3. Nature of the assay: Induction of apoptosis in human PC-3 cells assessed as early apoptotic cells at 10 uM measured after 24 hrs by annexinV-FITC staining based flow cytometric analysis (reference value: 0.12 %). The assay is classed as functional.
The subject of assay [12] is PC-3. Nature of the assay: Induction of apoptosis in human PC-3 cells assessed as late apoptotic cells at 10 uM measured after 24 hrs by annexinV-FITC staining based flow cytometric analysis (reference value: 1.87 %). The assay is classed as functional.
Assay [13] relates to PC-3. Nature of the assay: Induction of apoptosis in human PC-3 cells assessed as necrotic cells at 10 uM measured after 24 hrs by annexinV-FITC staining based flow cytometric analysis (reference value: 5.09 %). The assay is classed as functional.
In assay [14] the test system is PC-3. Nature of the assay: Induction of apoptosis in human PC-3 cells assessed as viable cells up to 10 uM measured at 2 hrs by annexinV-FITC staining based flow cytometric analysis (reference value: 91.1 %). The assay is classed as functional.
Assay [15] has as its system PC-3. Nature of the assay: Induction of apoptosis in human PC-3 cells assessed as early apoptotic cells up to 10 uM measured at 2 hrs by annexinV-FITC staining based flow cytometric analysis (reference value: 0.55 %). The assay is classed as functional.
For assay [16], the system named is PC-3. Nature of the assay: Induction of apoptosis in human PC-3 cells assessed as late apoptotic cells up to 10 uM measured at 2 hrs by annexinV-FITC staining based flow cytometric analysis (reference value: 4.64 %). The assay is classed as functional.
In assay [17] the test system is PC-3. Nature of the assay: Induction of apoptosis in human PC-3 cells assessed as necrotic cells up to 10 uM measured at 2 hrs by annexinV-FITC staining based flow cytometric analysis (reference value: 3.69 %). The assay is classed as functional.
For assay [18], the system named is PC-3. Nature of the assay: Induction of apoptosis in human PC-3 cells assessed as viable cells up to 10 uM measured at 4 hrs by annexinV-FITC staining based flow cytometric analysis (reference value: 91.1 %). The assay is classed as functional.
Assay [19] has as its system PC-3. Nature of the assay: Induction of apoptosis in human PC-3 cells assessed as early apoptotic cells up to 10 uM measured at 4 hrs by annexinV-FITC staining based flow cytometric analysis (reference value: 0.55 %). The assay is classed as functional.
Assay [20] deals with PC-3. Nature of the assay: Induction of apoptosis in human PC-3 cells assessed as late apoptotic cells up to 10 uM measured at 4 hrs by annexinV-FITC staining based flow cytometric analysis (reference value: 4.64 %). The assay is classed as functional.
Assay [21] has as its system PC-3. Nature of the assay: Induction of apoptosis in human PC-3 cells assessed as necrotic cells up to 10 uM measured at 4 hrs by annexinV-FITC staining based flow cytometric analysis (reference value: 3.69 %). The assay is classed as functional.
For assay [22], the system named is PC-3. Nature of the assay: Induction of apoptosis in human PC-3 cells assessed as viable cells up to 10 uM measured at 8 hrs by annexinV-FITC staining based flow cytometric analysis (reference value: 91.1 %). The assay is classed as functional.
The subject of assay [23] is PC-3. In words: Induction of apoptosis in human PC-3 cells assessed as early apoptotic cells up to 10 uM measured at 8 hrs by annexinV-FITC staining based flow cytometric analysis (reference value: 0.55 %). The assay is classed as functional.
Assay [24] concerns PC-3. In words: Induction of apoptosis in human PC-3 cells assessed as late apoptotic cells up to 10 uM measured at 8 hrs by annexinV-FITC staining based flow cytometric analysis (reference value: 4.64 %). The assay is classed as functional.
For assay [25], the system named is PC-3. Nature of the assay: Induction of apoptosis in human PC-3 cells assessed as necrotic cells up to 10 uM measured at 8 hrs by annexinV-FITC staining based flow cytometric analysis (reference value: 3.69 %). The assay is classed as functional.
For assay [26], the system named is PC-3. Nature of the assay: Induction of apoptosis in human PC-3 cells assessed as viable cells up to 10 uM measured att 12 hrs by annexinV-FITC staining based flow cytometric analysis (reference value: 91.1 %). The assay is classed as functional.
Assay [27] deals with PC-3. Nature of the assay: Induction of apoptosis in human PC-3 cells assessed as early apoptotic cells up to 10 uM measured at 12 hrs by annexinV-FITC staining based flow cytometric analysis (reference value: 0.55 %). The assay is classed as functional.
Assay [28] concerns PC-3. Nature of the assay: Induction of apoptosis in human PC-3 cells assessed as late apoptotic cells up to 10 uM measured at 12 hrs by annexinV-FITC staining based flow cytometric analysis (reference value: 4.64 %). The assay is classed as functional.
For assay [29], the system named is PC-3. Nature of the assay: Induction of apoptosis in human PC-3 cells assessed as necrotic cells up to 10 uM measured at 12 hrs by annexinV-FITC staining based flow cytometric analysis (reference value: 3.69 %). The assay is classed as functional.
Assay [30] relates to PC-3. In words: Induction of apoptosis in human PC-3 cells assessed as viable cells up to 10 uM measured att 24 hrs by annexinV-FITC staining based flow cytometric analysis (reference value: 91.1 %). The assay is classed as functional.
The test system of assay [31] is PC-3. In words: Induction of apoptosis in human PC-3 cells assessed as early apoptotic cells up to 10 uM measured at 24 hrs by annexinV-FITC staining based flow cytometric analysis (reference value: 0.55 %). The assay is classed as functional.
Assay [32] relates to PC-3. In words: Induction of apoptosis in human PC-3 cells assessed as late apoptotic cells up to 10 uM measured at 24 hrs by annexinV-FITC staining based flow cytometric analysis (reference value: 4.64 %). The assay is classed as functional.
The subject of assay [33] is PC-3. Nature of the assay: Induction of apoptosis in human PC-3 cells assessed as necrotic cells up to 10 uM measured at 24 hrs by annexinV-FITC staining based flow cytometric analysis (reference value: 3.69 %). The assay is classed as functional.
Assay [34] concerns PC-3. In words: Induction of apoptosis in human PC-3 cells assessed as increase in ROS levels at measured after 24 hrs by DCFH-DA staining based flow cytometry assay. The assay is classed as functional, cell-based. The following applies: dose <= 10.0 µM.
For assay [35], the system named is PC-3. Nature of the assay: Induction of mitochondrial membrane potential loss in human PC-3 cells at 2 uM measured after 24 hrs by JC-1 dye-based flow cytometric analysis (reference value: 100 %). The assay is classed as functional.
Assay [36] deals with PC-3. In words: Induction of mitochondrial membrane potential loss in human PC-3 cells at 4 uM measured after 24 hrs by JC-1 dye-based flow cytometric analysis (reference value: 100 %). The assay is classed as functional.
Assay [37] deals with PC-3. Nature of the assay: Induction of mitochondrial membrane potential loss in human PC-3 cells at 6 uM measured after 24 hrs by JC-1 dye-based flow cytometric analysis (reference value: 100 %). The assay is classed as functional.

Counter-ions that a name gives are not always drawn. Some results are limits rather than exact numbers.

As to `CC(C)=CCC[C@@H](C)[C@H]1[C@H](O)C[C@@]2(C)[C@@H]3CC[C@H]4C(C)(C)[C@@H](O)CC[C@]4(O)CC3=CC[C@]12C`, the IC50 (in general, the concentration at which inhibition is half-maximal) is 6.5 µM with PC-3 [1], 7 µM in the assay on A549, 9.4 µM in the assay with NCI-H3255 and 7.5 µM with NCI-H446.

As for `C=C(C)C(=O)CC[C@@H](C)[C@H]1[C@H](O)C[C@@]2(C)[C@@H]3CC[C@H]4C(C)(C)[C@@H](O)CC[C@]4(O)CC3=CC[C@]12C`, the IC50 with PC-3 [1] was found to be 4.2 µM; in the assay with A549 it was 4.4 µM; in the assay with NCI-H3255, 5.7 µM; in the assay on NCI-H446, 5 µM. The viability at 2.5 µM in the assay with PC-3 [2] came out at 93.2%. In addition, the Activity in the assay on PC-3 [3] amounted to 0.29%; in the assay on PC-3 [4], 2.06%; in the assay with PC-3 [5], 4.44%; with PC-3 [7], 1.64%; in the assay with PC-3 [8] it was 3.81%; with PC-3 [9] it was 2.68%. Further, the Activity was 0.78% in the assay with PC-3 [11]; 40.3% with PC-3 [12]; 12.9% in the assay with PC-3 [13]; 88.4% with PC-3 [14]; 0.33% in the assay on PC-3 [15]; 4.82% with PC-3 [16]. Moreover, the Activity worked out at 6.41% with PC-3 [17]; 87.1% with PC-3 [18]; 0.39% in the assay on PC-3 [19]; 5.8% in the assay with PC-3 [20]; 6.67% with PC-3 [21]; 88.8% with PC-3 [22]. Besides, the Activity in the assay on PC-3 [23] is listed as 0.76%; in the assay on PC-3 [24] it was 5.96%; with PC-3 [25] it was 4.5%; in the assay with PC-3 [26], 86.5%; with PC-3 [27], 2.63%; with PC-3 [28] it was 7.37%. Also, the Activity in the assay on PC-3 [29] was 3.48%; with PC-3 [30] it was 83%; in the assay on PC-3 [31], 3.3%; in the assay with PC-3 [32], 9.45%; in the assay with PC-3 [33], 4.25%; in the assay on PC-3 [34] it was “Dose-Dependent Effect”. Besides, the Activity in the assay with PC-3 [35] was determined as 85.2%; in the assay with PC-3 [36] it was 71.5%; with PC-3 [37], 16.8%. Further, the viability at 5 µM in the assay with PC-3 [6] was determined as 91.9%. In addition, in the assay with PC-3 [10], the viability at 10 µM was determined as 45%.

Turning to `C=C(C[C@@H](C)[C@H]1[C@H](O)C[C@@]2(C)[C@@H]3CC[C@H]4C(C)(C)[C@@H](O)CC[C@]4(O)CC3=CC[C@]12C)C(C)C`, the IC50 is 8.6 µM in the assay on PC-3 [1], 8.8 µM in the assay with A549, more than 10 µM in the assay on NCI-H3255 and 9.6 µM in the assay on NCI-H446.

For `COc1cccc2c1C(=O)c1c(O)c3c(c(O)c1C2=O)C[C@@](O)(C(=O)CO)C[C@@H]3O[C@H]1C[C@H](N)[C@H](O)[C@H](C)O1` [DOXORUBICIN HYDROCHLORIDE], the IC50 with PC-3 [1] turned out to be 0.4 µM; in the assay with A549 it was 1.2 µM; in the assay on NCI-H3255 it was 1.5 µM; in the assay with NCI-H446 it was 1.7 µM.
